From patent US20220096511A1, “ANTIFUNGAL AGENTS WITH IMPROVED WATER SOLUBILITY” (priority 2019, published 2022)
Values after ≈ are worked out from the molar mass of the structure shown. Like-named read-outs stand apart in the source and are kept apart here.

Assays:
[1] = tested on: Aspergillus niger; experiment: Minimum inhibitory concentration (MIC) testing, diffusion disc assay; format: cell-based; conditions: for MIC: Aspergillus niger, read-out: Inhibition of Aspergillus niger (MIC)
Procedure: (§1) Minimum inhibitory concentration (MIC) testing was determined for nystatin ethanol amide along with comparative antifungal agents.
(§2) Nystatin (Solid) and amphotericin were dissolved in DMF in 1 mg/mL. Econazole nitrate and Nystatin ethanol amide (salt) were dissolved in PBS to achieve 1 mg/mL.
(§3) Antibiotic medium 19 was sterilized in autoclave, after sterilization when the temperature lowered to 45° C. and 1 mL from spore suspension was added. 8 mL from this mixture dispensed to each petri dish.
(§4) On each dish 6 sterile diffusion paper disc were placed, 10 μL from each antibiotic were applied in 10, 15, 20, 25, 30, 35 μg/mL concentrations. Where MIC concentrations were below 10, lower concentrations were used: 2, 5, 7.5 μg/mL
(§5) The petri dishes were incubated overnight at 30° C. The MIC were determined as the lower concentration that inhibition could be visualized.
(§6) Observations. In this diffusion disc assay we measured the minimal concentration applied by each compound needed to inhibit the growth of C. albicans and A. niger. […] Amphotericin B inhibit the growth of C. albicans (16 μg/mL) similarly to Nystatin and Nystatin water soluble.

[2] = tested on: Candida albicans; experiment: as above; format: cell-based; conditions: for Inhibition of Candida albicans (MIC): diffusion paper disc, overnight at 30° C., average of three experiments
Procedure: as §1, §2, §3, §4, §5, §6

[3] = tested on: hep2 cell line; experiment: Toxicity: viability of hep2 cell line after incubation with the compound; format: cell-based; conditions: compared with nystatin
Procedure: Toxicity: Toxicity was tested with hep2 cell line by checking their viability after incubation with the compound. The amount of the compound that corresponds to 50% cell viability is the maximum amount of compound that can be apply on to cell culture.

[4] = tested on: microorganisms; experiment: Potency testing, cylinder plate assay, method USP <81>; format: cell-based; conditions: for 1 mg
Description: The terms “antifungal activity” or “potency,” these terms being used interchangeably, refer to the inhibitory effect of an antifungal agent on microorganisms under suitable conditions as measured using a standard analytical method, such as the methods established by the United States Pharmacopeial Convention (USP).
Potency testing is done using a cylinder plate assay using the methods described in U.S. Pharmacopeia, e.g., Pharmacopeial Forum, Vol. 36(6) [November-December 2010] <81> Antibiotics—Microbial Assays, USP 32 page 86 ff.
FIG. 5 is a photo showing the results of potency testing according to method USP/81 of the nystatin ethanol amide product.

[5] = Endotoxin testing (LAL); conditions: standard methods
Procedure: Endotoxin testing (LAL) was performed using standard methods and found to be <30 Eu/mg.

[6] = diffusion paper disc, overnight at 30° C., average of three experiments

Molecule	Inhibition of Aspergillus niger (MIC) [1, 6]	Inhibition of Candida albicans (MIC) [2]	further results
C[C@@H]1[C@H](O)[C@@H](C)/C=C/C=C/C=C/C=C/C=C/C=C/C=C/[C@H](O[C@@H]2O[C@H](C)[C@@H](O)[C@H](N)[C@@H]2O)C[C@@H]2O[C@](O)(C[C@@H](O)C[C@@H](O)[C@H](O)CC[C@@H](O)C[C@@H](O)CC(=O)O[C@H]1C)C[C@H](O)[C@H]2C(=O)O [Amphotericin, amphotericin B]			MIC [1, 6]: 31.5 µg/mL (≈ 34.1 µM)
Clc1ccc(COC(Cn2ccnc2)c2ccc(Cl)cc2Cl)cc1 (stereo not drawn) [Econazole, Econazole nitrate]	No inhibition	No inhibition	
C[C@@H]1[C@H](O)[C@@H](C)/C=C/C=C/CC/C=C/C=C/C=C/C=C/[C@H](O[C@@H]2O[C@H](C)[C@@H](O)[C@H](N)[C@@H]2O)C[C@@H]2O[C@](O)(C[C@@H](O)[C@H](O)CC[C@@H](O)C[C@@H](O)C[C@@H](O)CC(=O)O[C@H]1C)C[C@H](O)[C@H]2C(=O)NCCO [Nystatin ethanol amide]			Toxicity (amount of compound corresponding to 50% cell viability) [3]: the same or better than the unsalable nystatin; MIC [1]: 23.6 µg/mL (≈ 24.4 µM); MIC ([2]; Candida albicans, read-out: Inhibition of Candida albicans (MIC)): 15.7 µg/mL (≈ 16.2 µM); potency [4]: 5500-6500 U; Endotoxin (LAL) [5]: < 30 Eu/mg
C[C@@H]1[C@H](O)[C@@H](C)/C=C/C=C/CC/C=C/C=C/C=C/C=C/C(O[C@H]2O[C@H](C)[C@@H](O)[C@H](N)[C@@H]2O)CC2O[C@](O)(CC(O)C(O)CCC(O)CC(O)CC(O)CC(=O)O[C@H]1C)CC(O)C2C(=O)O (stereo partly drawn) [Nystatin]	22.5 µg/mL	14 µg/mL	
Nystatin Methyl ester	No inhibition	30 µg/mL	Inhibition of Aspergillus niger (MIC) ([1]; diffusion paper disc, overnight at 30° C., average of three experiments, listed as Nystatin methyl ester): no observed inhibition
Polymixin B	No inhibition	No inhibition	
